From patent US20040146585A1, “Use of thiol-based compositions in treating chemotherapeutic agent-induced thrombocytopenia” (Oregon Health & Science University, priority 2002, published 2004)

System: patients with malignant brain tumors
Source text: Blood/bone marrow toxicity data from patients with malignant brain tumors treated with carboplatin-based regimens with or without delayed high-dose STS were graded in accordance with National Cancer Institute Common Toxicity Criteria (NCI CTC) (version 2.0).
Treatment Regimen. Patients with a variety of malignant brain tumor histologies, including metastases to the brain, were eligible for treatment. Patients who had previously undergone central nervous system or systemic radiotherapy or chemotherapy were eligible, however 2 weeks must have elapsed since prior radiotherapy and 4 weeks since prior chemotherapy. Patients were required to have normal hematologic, renal and hepatic function.
The BBBD procedure was done on two consecutive days, approximately every 4 weeks for up to 12 months. Mannitol (25%) was infused (5-10 cc/sec) into the appropriate internal carotid or vertebral artery, depending on tumor location, for 30 seconds. The combination chemotherapy regimen consisted of cyclophosphamide (330 Mg/m^2/day×2 days; total dose, 660 mg/m^2) (i.v.) beginning approximately 20 minutes before the mannitol infusion, carboplatin (200 mg/m^2/day×2 days; total dose, 400 Mg/m^2) (i.a.) administered over 10 minutes, within 5 minutes after the mannitol, and etoposide (i.v.) or etoposide phosphate (200 mg/m^2/day×2 days; total dose, 400 mg/m^2) (i.a. or i.v.). Patients received granulocyte-colony stimulating factor (G-CSF) (5 mcg/kg) for 10 days after chemotherapy or until the absolute neutrophil count was greater than 1000/μL.
STS was available as a 25% (250 mg/ml) solution. Dose was determined (16 or 20 grams/m^2) and mixed with an equivalent amount of sterile water (1 ml: 1 ml) for infusion. […] The most commonly used regimen was benadryl (12.5 mg), dexamethasone (6 mg), and if needed, ativan (0.5-1.0 mg), i.v. 30-45 minutes before STS.
STS was administered i.v. over about 15 minutes. The number of STS doses the patient received depended on the patient baseline hearing status, and whether they experienced an ototoxic shift during treatment. Patients treated with BBBD/STS received STS in one dose (20 grams/m^2) 4 hours after carboplatin (n=10), or two doses (20 grams/m^2 at 4 hrs, and 16 grams/m^2 at 8 hours) after carboplatin (n=19).
Because malignant brain tumor patients are at risk for intracerebral hemorrhage, patients underwent platelet transfusion when platelet count was <20×10^3/mm^3. Following a platelet transfusion, on subsequent chemotherapy courses the carboplatin dose was reduced 25%.
Data Analysis. Blood/bone marrow toxicity data were graded in accordance with NCI CTC and analyzed in the following […] treatment groups: 1) patients treated with carboplatin, cyclophosphamide and etoposide with BBBD and without STS, and 2) patients treated with carboplatin, cyclophosphamide and etoposide phosphate with BBBD and with STS. For both groups, blood/bone marrow toxicity data from all carboplatin-based courses of patients in treatment were included in the analysis.
First, platelet nadirs were plotted for each subject and as means for each of the three study groups. For group comparisons, a mixed, repeated measures analysis of variance (ANOVA) model was fit using the parameter platelet nadir for each course as the measure. Gender, […] (≧70 or not), prior chemotherapy, prior radiation, and age at first course were included as covariates. Several other events were examined including grade 3 or 4 platelet toxicity as defined by NCI CTC, platelet transfusion, and the need for hematologically driven chemotherapy dose reduction. […] For present/absent outcomes as these, a mixed model repeated measures analysis (using the present/absent outcomes as the best response for each course) was performed. The mixed model ANOVA's using presence/absence of the outcome was adjusted for the covariates listed above.
Analyses were performed using Version 8.01 of SAS® for Windows.

`O=S([O-])([O-])=S.[Na+].[Na+]` [STS, sodium thiosulfate] was tested, and the “adverse effects caused by high-dose STS” value (16 or 20 grams/m^2 i.v., National Cancer Institute CTC, version 2.0) was “transient hypematremia, hypertension, and controllable grade II nausea and vomiting”, the “patients requiring dose reduction of carboplatin” value (BBBD with STS) was “no patients” and the “Platelet Nadir <20 × 10^3/mm^3, percent of carboplatin courses” value (BBBD/STS, 129 courses) was 1% courses. The “Platelet Transfusions, percent of carboplatin courses” value (BBBD/STS, 129 courses) was 2% courses, the “Dose Reductions of carboplatin, percent of patients” value (BBBD/STS, n = 29) was 0% pts and the “Platelet Transfusions, percent of patients” value (BBBD/STS, n = 29) was 7% pts. For the same compound, the “Platelet Nadir <20 × 10^3/mm^3, percent of patients” value (BBBD/STS, n = 29, carboplatin, cyclophosphamide, etoposide phosphate, STS i.v. 20 grams/m^2 at 4 h (and 16 grams/m^2 at 8 h) after carboplatin) was 4% pts, the “grade 3 or 4 white blood cell toxicity, treatment groups with vs without STS” value (NCI CTC) was “no significant difference among treatment groups” and the “grade 3 or 4 platelet toxicity, treatment groups with vs without STS” value (NCI CTC, adjusted for age at first carboplatin treatment, p=0.14) was “no significant difference among the treatment groups”. For the same compound, the “rates of dose reduction of carboplatin, treatment groups with vs without STS” value (Pearson chi-square test) was “difference between the treatment groups was significant”, the “platelet transfusion (present or absent), treatment groups with vs without STS” value (mixed model, p=0.035) was “significant difference between the treatment groups” and the “platelet nadir <20×10^3/mm^3 (binary), treatment groups with vs without STS” value (mixed-model analysis of variance controlling for KPS≧70 and prior chemotherapy, p=0.0002) was “significant difference among the two treatment groups”. The “estimated probabilities of platelet transfusions” value (patients treated with BBBD and STS, mixed model estimate (22.4% for BBBD without STS)) was 9.0%.
